Assay results as given in ChEMBL document CHEMBL4507280 (2021).

How the values were obtained:
[1] = tested on: Tyrosine-protein kinase ABL1 (Homo sapiens), P00519 [F317L]; conditions: Compound concentration 1000.0 nM
[2] = tested on: Tyrosine-protein kinase ABL1 (Homo sapiens), P00519 [H396P]; conditions: Compound concentration 1000.0 nM
[3] = tested on: Tyrosine-protein kinase ABL1 (Homo sapiens), P00519 [Q252H]; conditions: Compound concentration 1000.0 nM
[4] = target: Tyrosine-protein kinase ABL1 (Homo sapiens) (UniProt P00519); conditions: Compound concentration 1000.0 nM
[5] = target: Atypical kinase COQ8A, mitochondrial (Homo sapiens) (UniProt Q8NI60); conditions: Compound concentration 1000.0 nM
[6] = tested on: ALK tyrosine kinase receptor (Homo sapiens), Q9UM73 [C1156Y]; conditions: Compound concentration 1000.0 nM
[7] = target: Aurora kinase C (Homo sapiens) (UniProt Q9UQB9); conditions: Compound concentration 1000.0 nM
[8] = target: Bone morphogenetic protein receptor type-1B (Homo sapiens) (UniProt O00238); conditions: Compound concentration 1000.0 nM
[9] = target: Cyclin-dependent kinase 3 (Homo sapiens) (UniProt Q00526); conditions: Compound concentration 1000.0 nM
[10] = target: Cyclin-dependent kinase 8 (Homo sapiens) (UniProt P49336); conditions: Compound concentration 1000.0 nM
[11] = target: Serine/threonine-protein kinase DCLK2 (Homo sapiens) (UniProt Q8N568); conditions: Compound concentration 1000.0 nM
[12] = target: Ephrin type-A receptor 7 (Homo sapiens) (UniProt Q15375); conditions: Compound concentration 1000.0 nM
[13] = target: Fibroblast growth factor receptor 2 (Homo sapiens) (UniProt P21802); conditions: Compound concentration 1000.0 nM
[14] = tested on: Receptor-type tyrosine-protein kinase FLT3 (Homo sapiens), P36888 [D835H]; conditions: Compound concentration 1000.0 nM
[15] = tested on: Receptor-type tyrosine-protein kinase FLT3 (Homo sapiens), P36888 [UNDEFINED MUTATION]; conditions: Compound concentration 1000.0 nM
[16] = tested on: Receptor-type tyrosine-protein kinase FLT3 (Homo sapiens), P36888 [R834Q]; conditions: Compound concentration 1000.0 nM
[17] = target: Tyrosine-protein kinase Fyn (Homo sapiens) (UniProt P06241); conditions: Compound concentration 1000.0 nM
[18] = target: G protein-coupled receptor kinase 3 (Homo sapiens) (UniProt P35626); conditions: Compound concentration 1000.0 nM
[19] = target: Serine/threonine-protein kinase ICK (Homo sapiens) (UniProt Q9UPZ9); conditions: Compound concentration 1000.0 nM
[20] = target: Inhibitor of nuclear factor kappa-B kinase subunit alpha (Homo sapiens) (UniProt O15111); conditions: Compound concentration 1000.0 nM
[21] = tested on: Leucine-rich repeat serine/threonine-protein kinase 2 (Homo sapiens), Q5S007 [G2019S]; conditions: Compound concentration 1000.0 nM
[22] = target: Mitogen-activated protein kinase kinase kinase 15 (Homo sapiens) (UniProt Q6ZN16); conditions: Compound concentration 1000.0 nM
[23] = target: Dual specificity mitogen-activated protein kinase kinase 6 (Homo sapiens) (UniProt P52564); conditions: Compound concentration 1000.0 nM
[24] = target: Serine/threonine-protein kinase 38 (Homo sapiens) (UniProt Q15208); conditions: Compound concentration 1000.0 nM
[25] = target: Serine/threonine-protein kinase NIM1 (Homo sapiens) (UniProt Q8IY84); conditions: Compound concentration 1000.0 nM
[26] = target: Serine/threonine-protein kinase OSR1 (Homo sapiens) (UniProt O95747); conditions: Compound concentration 1000.0 nM
[27] = target: Serine/threonine-protein kinase PAK 3 (Homo sapiens) (UniProt O75914); conditions: Compound concentration 1000.0 nM
[28] = target: Serine/threonine-protein kinase PAK 4 (Homo sapiens) (UniProt O96013); conditions: Compound concentration 1000.0 nM
[29] = tested on: Phosphatidylinositol 4,5-bisphosphate 3-kinase catalytic subunit alpha isoform (Homo sapiens), P42336 [I800L]; conditions: Compound concentration 1000.0 nM
[30] = target: Serine/threonine-protein kinase pim-1 (Homo sapiens) (UniProt P11309); conditions: Compound concentration 1000.0 nM
[31] = target: Phosphatidylinositol 4-phosphate 5-kinase type-1 alpha (Homo sapiens) (UniProt Q99755); conditions: Compound concentration 1000.0 nM
[32] = target: Protein kinase C eta type (Homo sapiens) (UniProt P24723); conditions: Compound concentration 1000.0 nM
[33] = target: cGMP-dependent protein kinase 2 (Homo sapiens) (UniProt Q13237); conditions: Compound concentration 1000.0 nM
[34] = target: Interferon-induced, double-stranded RNA-activated protein kinase (Homo sapiens) (UniProt P19525); conditions: Compound concentration 1000.0 nM
[35] = target: Ribosomal protein S6 kinase alpha-3 (Homo sapiens) (UniProt P51812); conditions: Compound concentration 1000.0 nM
[36] = target: Ribosomal protein S6 kinase alpha-2 (Homo sapiens) (UniProt Q15349); conditions: Compound concentration 1000.0 nM
[37] = target: STE20/SPS1-related proline-alanine-rich protein kinase (Homo sapiens) (UniProt Q9UEW8); conditions: Compound concentration 1000.0 nM
[38] = target: Dual specificity protein kinase TTK (Homo sapiens) (UniProt P33981); conditions: Compound concentration 1000.0 nM
[39] = target: Serine/threonine-protein kinase WNK1 (Homo sapiens) (UniProt Q9H4A3); conditions: Compound concentration 1000.0 nM
[40] = target: Serine/threonine-protein kinase 32C (Homo sapiens) (UniProt Q86UX6); conditions: Compound concentration 1000.0 nM
[41] = target: 5-hydroxytryptamine receptor 2A (Homo sapiens) (UniProt P28223); conditions: Compound concentration 10.0 uM
[42] = target: 5-hydroxytryptamine receptor 3A (Homo sapiens) (UniProt P46098); conditions: Compound concentration 10.0 uM
[43] = target: D(3) dopamine receptor (Homo sapiens) (UniProt P35462); conditions: Compound concentration 10.0 uM
[44] = target: Sodium-dependent serotonin transporter (Homo sapiens) (UniProt P31645); conditions: Compound concentration 10.0 uM
[45] = target: Sodium-dependent dopamine transporter (Homo sapiens) (UniProt Q01959); conditions: Compound concentration 10.0 uM

Sequence of D(3) dopamine receptor (Homo sapiens) (P35462 whole entry): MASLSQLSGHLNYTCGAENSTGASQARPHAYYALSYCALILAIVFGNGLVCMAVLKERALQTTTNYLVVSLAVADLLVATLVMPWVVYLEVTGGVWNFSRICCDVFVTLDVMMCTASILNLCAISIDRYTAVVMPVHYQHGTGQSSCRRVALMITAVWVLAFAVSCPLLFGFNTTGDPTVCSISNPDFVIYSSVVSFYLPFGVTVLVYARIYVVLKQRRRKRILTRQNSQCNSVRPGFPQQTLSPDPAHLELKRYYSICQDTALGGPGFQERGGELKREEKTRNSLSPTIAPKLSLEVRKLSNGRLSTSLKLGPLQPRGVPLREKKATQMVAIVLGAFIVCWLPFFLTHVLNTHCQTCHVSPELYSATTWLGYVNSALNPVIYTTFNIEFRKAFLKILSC
Sequence of Serine/threonine-protein kinase OSR1 (Homo sapiens) (O95747 2-527 limits assumed): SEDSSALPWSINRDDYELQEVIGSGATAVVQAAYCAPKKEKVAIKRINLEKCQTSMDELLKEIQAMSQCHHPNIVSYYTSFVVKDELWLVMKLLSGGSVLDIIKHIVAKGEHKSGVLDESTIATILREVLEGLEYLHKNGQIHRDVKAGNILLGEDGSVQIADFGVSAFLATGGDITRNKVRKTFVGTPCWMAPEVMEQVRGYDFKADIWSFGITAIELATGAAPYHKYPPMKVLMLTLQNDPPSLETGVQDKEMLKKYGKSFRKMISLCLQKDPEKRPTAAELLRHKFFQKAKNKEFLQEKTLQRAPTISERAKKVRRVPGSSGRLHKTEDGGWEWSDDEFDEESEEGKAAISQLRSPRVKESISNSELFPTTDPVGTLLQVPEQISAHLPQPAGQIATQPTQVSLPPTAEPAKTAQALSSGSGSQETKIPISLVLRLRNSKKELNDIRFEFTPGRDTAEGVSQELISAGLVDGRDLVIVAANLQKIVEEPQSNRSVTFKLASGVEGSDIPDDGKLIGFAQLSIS
Sequence of Sodium-dependent serotonin transporter (Homo sapiens) (P31645 whole entry, looked up): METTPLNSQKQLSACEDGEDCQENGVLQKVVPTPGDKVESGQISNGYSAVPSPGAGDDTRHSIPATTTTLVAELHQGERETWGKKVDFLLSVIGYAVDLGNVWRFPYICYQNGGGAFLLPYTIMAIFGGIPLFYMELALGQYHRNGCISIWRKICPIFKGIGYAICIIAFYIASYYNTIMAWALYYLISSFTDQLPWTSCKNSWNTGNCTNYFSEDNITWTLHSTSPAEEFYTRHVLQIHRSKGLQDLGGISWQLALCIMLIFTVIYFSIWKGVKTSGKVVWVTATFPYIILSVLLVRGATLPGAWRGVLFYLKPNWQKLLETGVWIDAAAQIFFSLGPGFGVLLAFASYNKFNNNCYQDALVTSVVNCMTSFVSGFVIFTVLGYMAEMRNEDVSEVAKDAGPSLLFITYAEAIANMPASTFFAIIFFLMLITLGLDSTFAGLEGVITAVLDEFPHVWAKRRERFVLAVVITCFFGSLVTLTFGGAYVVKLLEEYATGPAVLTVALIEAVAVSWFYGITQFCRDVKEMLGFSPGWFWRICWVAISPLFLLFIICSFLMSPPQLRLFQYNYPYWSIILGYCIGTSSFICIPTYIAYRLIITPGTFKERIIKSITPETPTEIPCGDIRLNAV
Sequence of Phosphatidylinositol 4,5-bisphosphate 3-kinase catalytic subunit alpha isoform (Homo sapiens), P42336 [I800L] (P42336 whole entry I800L, canonical isoform): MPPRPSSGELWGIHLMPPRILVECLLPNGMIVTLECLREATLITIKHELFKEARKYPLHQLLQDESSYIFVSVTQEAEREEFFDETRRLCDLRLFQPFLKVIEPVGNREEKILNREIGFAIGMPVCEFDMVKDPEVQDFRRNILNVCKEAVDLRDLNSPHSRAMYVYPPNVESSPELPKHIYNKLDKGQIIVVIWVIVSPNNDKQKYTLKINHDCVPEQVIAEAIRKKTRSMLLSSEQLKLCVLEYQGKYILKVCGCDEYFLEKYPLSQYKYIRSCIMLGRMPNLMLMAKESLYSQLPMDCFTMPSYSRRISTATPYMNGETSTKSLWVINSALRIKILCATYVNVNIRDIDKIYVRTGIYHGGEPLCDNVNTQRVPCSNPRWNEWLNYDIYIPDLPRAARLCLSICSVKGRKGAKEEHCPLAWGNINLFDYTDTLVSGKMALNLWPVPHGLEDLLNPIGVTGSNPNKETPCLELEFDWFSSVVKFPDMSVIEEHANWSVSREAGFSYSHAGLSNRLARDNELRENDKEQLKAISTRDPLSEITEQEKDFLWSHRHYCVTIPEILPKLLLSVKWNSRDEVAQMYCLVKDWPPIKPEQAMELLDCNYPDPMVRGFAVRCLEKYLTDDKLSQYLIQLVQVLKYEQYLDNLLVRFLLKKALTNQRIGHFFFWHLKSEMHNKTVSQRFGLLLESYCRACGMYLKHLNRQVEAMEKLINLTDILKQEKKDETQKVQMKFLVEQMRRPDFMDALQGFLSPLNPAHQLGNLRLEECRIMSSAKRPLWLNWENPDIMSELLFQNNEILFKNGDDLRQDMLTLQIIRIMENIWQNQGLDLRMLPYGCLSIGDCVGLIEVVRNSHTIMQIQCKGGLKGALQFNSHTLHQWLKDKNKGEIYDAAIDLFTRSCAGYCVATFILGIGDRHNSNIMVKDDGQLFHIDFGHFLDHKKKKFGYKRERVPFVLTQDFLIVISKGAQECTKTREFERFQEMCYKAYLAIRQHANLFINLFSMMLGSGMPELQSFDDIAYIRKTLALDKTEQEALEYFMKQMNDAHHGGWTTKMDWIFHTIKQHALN
Sequence of Interferon-induced, double-stranded RNA-activated protein kinase (Homo sapiens) (P19525 whole entry): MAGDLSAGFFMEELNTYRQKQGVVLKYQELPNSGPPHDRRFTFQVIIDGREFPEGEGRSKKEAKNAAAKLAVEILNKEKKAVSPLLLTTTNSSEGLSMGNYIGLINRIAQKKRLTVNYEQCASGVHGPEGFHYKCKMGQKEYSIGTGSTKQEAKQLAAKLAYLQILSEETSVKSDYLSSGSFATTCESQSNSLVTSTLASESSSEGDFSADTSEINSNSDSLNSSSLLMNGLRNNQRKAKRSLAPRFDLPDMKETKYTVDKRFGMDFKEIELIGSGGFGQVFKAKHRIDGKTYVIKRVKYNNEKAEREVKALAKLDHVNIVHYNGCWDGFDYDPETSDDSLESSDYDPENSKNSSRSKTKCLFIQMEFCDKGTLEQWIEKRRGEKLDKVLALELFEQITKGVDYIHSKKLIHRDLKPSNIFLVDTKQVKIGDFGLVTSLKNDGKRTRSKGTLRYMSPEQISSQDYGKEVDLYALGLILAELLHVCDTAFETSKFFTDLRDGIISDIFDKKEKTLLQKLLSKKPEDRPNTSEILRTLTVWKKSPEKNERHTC
Sequence of Serine/threonine-protein kinase NIM1 (Homo sapiens) (Q8IY84 whole entry): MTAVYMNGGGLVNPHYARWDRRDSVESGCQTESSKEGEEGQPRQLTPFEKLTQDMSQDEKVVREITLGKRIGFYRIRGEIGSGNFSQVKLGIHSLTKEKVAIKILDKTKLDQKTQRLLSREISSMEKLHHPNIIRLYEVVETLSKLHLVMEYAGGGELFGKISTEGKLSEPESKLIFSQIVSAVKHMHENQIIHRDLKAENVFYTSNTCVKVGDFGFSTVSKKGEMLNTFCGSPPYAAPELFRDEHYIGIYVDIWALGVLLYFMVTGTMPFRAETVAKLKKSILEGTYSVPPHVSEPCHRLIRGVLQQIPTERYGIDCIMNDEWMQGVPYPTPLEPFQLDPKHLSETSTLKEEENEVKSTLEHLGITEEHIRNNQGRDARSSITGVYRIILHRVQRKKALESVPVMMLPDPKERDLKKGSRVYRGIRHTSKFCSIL
Sequence of cGMP-dependent protein kinase 2 (Homo sapiens) (Q13237 whole entry): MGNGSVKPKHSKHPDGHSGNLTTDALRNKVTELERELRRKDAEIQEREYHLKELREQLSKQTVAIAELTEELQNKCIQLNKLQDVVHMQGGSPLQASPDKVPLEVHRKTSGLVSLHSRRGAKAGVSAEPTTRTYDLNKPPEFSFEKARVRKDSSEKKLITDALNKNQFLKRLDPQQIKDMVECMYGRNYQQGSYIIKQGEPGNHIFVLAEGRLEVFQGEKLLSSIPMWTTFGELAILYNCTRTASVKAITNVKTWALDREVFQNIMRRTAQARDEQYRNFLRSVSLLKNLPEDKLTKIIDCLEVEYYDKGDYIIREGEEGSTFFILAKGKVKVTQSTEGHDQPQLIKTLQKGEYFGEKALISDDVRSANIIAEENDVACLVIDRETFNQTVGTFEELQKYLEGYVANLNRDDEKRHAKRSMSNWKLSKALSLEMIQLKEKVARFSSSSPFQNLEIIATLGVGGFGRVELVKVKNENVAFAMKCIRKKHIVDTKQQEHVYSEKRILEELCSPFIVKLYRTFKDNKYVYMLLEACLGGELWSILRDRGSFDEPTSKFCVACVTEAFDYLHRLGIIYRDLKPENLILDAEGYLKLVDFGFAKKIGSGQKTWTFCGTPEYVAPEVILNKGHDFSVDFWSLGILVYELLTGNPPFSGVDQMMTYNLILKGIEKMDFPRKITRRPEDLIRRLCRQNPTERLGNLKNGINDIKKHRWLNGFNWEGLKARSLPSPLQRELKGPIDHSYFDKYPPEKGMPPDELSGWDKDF
Sequence of Serine/threonine-protein kinase pim-1 (Homo sapiens) (P11309 whole entry, looked up): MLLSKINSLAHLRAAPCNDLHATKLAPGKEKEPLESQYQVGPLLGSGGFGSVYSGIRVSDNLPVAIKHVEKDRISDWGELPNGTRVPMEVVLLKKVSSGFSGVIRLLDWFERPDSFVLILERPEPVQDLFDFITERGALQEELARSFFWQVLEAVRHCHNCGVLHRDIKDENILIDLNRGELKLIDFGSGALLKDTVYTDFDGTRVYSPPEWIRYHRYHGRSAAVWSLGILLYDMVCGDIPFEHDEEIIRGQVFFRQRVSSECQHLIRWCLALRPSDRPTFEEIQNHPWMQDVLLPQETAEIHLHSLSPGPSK
Sequence of Aurora kinase C (Homo sapiens) (Q9UQB9 whole entry): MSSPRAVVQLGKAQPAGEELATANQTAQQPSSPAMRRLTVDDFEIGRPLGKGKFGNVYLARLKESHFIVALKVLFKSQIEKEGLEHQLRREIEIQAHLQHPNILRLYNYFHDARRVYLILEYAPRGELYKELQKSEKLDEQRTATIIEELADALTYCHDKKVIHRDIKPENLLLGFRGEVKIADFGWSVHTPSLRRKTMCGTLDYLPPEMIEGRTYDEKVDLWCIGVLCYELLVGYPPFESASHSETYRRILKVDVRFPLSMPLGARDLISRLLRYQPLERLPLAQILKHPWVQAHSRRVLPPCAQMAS

CCC(=O)N[C@H]1CC[C@@H](C(=O)N(C)c2ccc(-c3nc4ccccc4o3)cc2)C1 [BI 99179]
residual activity [1]: 72% | residual activity [2]: 88% | residual activity [3]: 72% | residual activity [4]: 85% | residual activity [5]: 100% | residual activity [6]: 100% | residual activity [7]: 100% | residual activity [8]: 91% | residual activity [9]: 98% | residual activity [10]: 100% | residual activity [11]: 98% | residual activity [12]: 97% | residual activity [13]: 91% | residual activity [14]: 95% | residual activity [15]: 100% | residual activity [16]: 100% | residual activity [17]: 100% | residual activity [18]: 80% | residual activity [19]: 70% | residual activity [20]: 100% | residual activity [21]: 100% | residual activity [22]: 100% | residual activity [23]: 100% | residual activity [24]: 77% | residual activity [25]: 88% | residual activity [26]: 83% | residual activity [27]: 98% | residual activity [28]: 100% | residual activity [29]: 63% | residual activity [30]: 100% | residual activity [31]: 100% | residual activity [32]: 96% | residual activity [33]: 100% | residual activity [34]: 100% | residual activity [35]: 87% | residual activity [36]: 99% | residual activity [37]: 100% | residual activity [38]: 100% | residual activity [39]: 100% | residual activity [40]: 94% | inhibition [41]: 2.34% | inhibition [42]: -1.4% | inhibition [43]: 12.1% | inhibition [44]: 32.8% | inhibition [45]: 77.3%

CCC(=O)N[C@@H]1CC[C@H](C(=O)N(C)c2ccc(-c3nc4ccccc4o3)cc2)C1 [BI 99990]
residual activity [1]: 86% | residual activity [2]: 92% | residual activity [3]: 77% | residual activity [4]: 76% | residual activity [5]: 99% | residual activity [6]: 100% | residual activity [7]: 100% | residual activity [8]: 100% | residual activity [9]: 100% | residual activity [10]: 100% | residual activity [11]: 89% | residual activity [12]: 100% | residual activity [13]: 86% | residual activity [14]: 100% | residual activity [15]: 94% | residual activity [16]: 100% | residual activity [17]: 85% | residual activity [18]: 100% | residual activity [19]: 92% | residual activity [20]: 100% | residual activity [21]: 100% | residual activity [22]: 100% | residual activity [23]: 100% | residual activity [24]: 80% | residual activity [25]: 99% | residual activity [26]: 100% | residual activity [27]: 98% | residual activity [28]: 100% | residual activity [29]: 100% | residual activity [30]: 100% | residual activity [31]: 86% | residual activity [32]: 95% | residual activity [33]: 92% | residual activity [34]: 100% | residual activity [35]: 91% | residual activity [36]: 86% | residual activity [37]: 73% | residual activity [38]: 100% | residual activity [39]: 100% | residual activity [40]: 73% | inhibition [41]: -9.08% | inhibition [42]: -9.11% | inhibition [43]: 4.36% | inhibition [44]: 20.2% | inhibition [45]: 23.3%
